Assay results from patent US10272053B2, “Nanoparticle targeted drug delivery to the lungs using extra-testicular sertoli cells” (UNIVERSITY OF SOUTH FLORIDA, priority 2008, dated 2019).

Test: Quantification of curcumin in lungs of injected asthmatic mice (UV absorbance)
Assay type: in vivo, mouse
Conditions: IV SCET
Description: […] Each lung was placed in a labeled container with 1 ml PBS. The lungs were then sonicated for 10 seconds by the Sonic Dismembrinator 60 (Fisher Scientific) to lyse the Sertoli cells and release the curcumin nanoparticles. The curcumin was then separated from the nanoparticles by adding 500 μl DMSO to each container. The suspension was then centrifuged at 1200 rpm for 10 minutes and the supernatant was collected. A UV spectrum was collected from each supernatant sample.
In addition to normal mice, some female C57BL/6 and BALB/c mice were sensitized by intraperitoneal injection (i.p.) of 10 μl ovalbumin (OVA) with alum as previously described to mimic acute allergic asthma (Weggman, M. Animal models of chronic experimental asthma—strategies for the identification of new therapeutic targets. Occup Med Toxicol. 3 (Suppl 1) (2008); Temelkovski J, Hogan S P, Shepherd D P, Foster P S, Kumar R K. An improved murinemodel of asthma: selective airway inflammation, epithelial lesions and increased methacholine responsiveness following chronic exposure to aerosolised allergen. Thorax. 10, 849-56 (1998)). The mice were challenged weekly for 3 weeks with an intranasal injection (i.n.) of 25 μl OVA (20 mg/ml). One hour after the last i.n. challenge, the treatment group (n=7) was injected via the tail vein with pre-loaded, pre-labeled SCET (8×10^6) that contained nanoparticles coupled with […] curcumin dose. Others asthmatic mice were not injected with SCET to serve as untreated controls (n=6). […]
Each lung was placed in a labeled container with 1 ml PBS. The lungs were then sonicated for 10 seconds by the Sonic Dismembrinator 60 (Fisher Scientific) to lyse the Sertoli cells and release the curcumin nanoparticles. The curcumn was then separated from the nanoparticles by adding 500 μl DMSO to each container. The suspension was then centrifuged at 1200 rpm for 10 minutes and the supernatant was collected. A UV spectrum was collected from each supernatant sample. Data was presented for absorbance assays of Sertoli cells, nanoparticles and curcumin from all samples from all mice, including a sample of the nanoparticle pre-loaded, pre-labeled SC injectable (8×10^6) were replicated and the mean values of SCs, nanoparticles and curcumin were expressed as a percentage of the mean value determined in the pre-loaded, pre-labeled Sertloli cell injectable (8×10^6)

COc1cc(/C=C/C(=O)CC(=O)/C=C/c2ccc(O)c(OC)c2)ccc1O [curcumin]
80%: percentage of injected curcumin load present in the lungs (15 minutes post-injection) | delivery of curcumin throughout the pulmonary tissue (time not stated) | percentage of total curcumin in the injected SCET found in the lungs (asthmatic mice, 25 hours following injection) | percentage of injected curcumin load present in the lungs (asthmatic mice, one hour post-injection)
